# In US5081152A, “Azulene derivatives as thromboxane A2 and prostaglandin endoperoxide receptor antagonist” (Kotobuki Seiyaku Co., Ltd., priority 1989, dated 1992):
# Counter-ions that a name gives are not always drawn.
# Molecular target: T1, Thromboxane A2 receptor (Rattus norvegicus, UniProt P34978)
# T1 sequence (P34978 1-341): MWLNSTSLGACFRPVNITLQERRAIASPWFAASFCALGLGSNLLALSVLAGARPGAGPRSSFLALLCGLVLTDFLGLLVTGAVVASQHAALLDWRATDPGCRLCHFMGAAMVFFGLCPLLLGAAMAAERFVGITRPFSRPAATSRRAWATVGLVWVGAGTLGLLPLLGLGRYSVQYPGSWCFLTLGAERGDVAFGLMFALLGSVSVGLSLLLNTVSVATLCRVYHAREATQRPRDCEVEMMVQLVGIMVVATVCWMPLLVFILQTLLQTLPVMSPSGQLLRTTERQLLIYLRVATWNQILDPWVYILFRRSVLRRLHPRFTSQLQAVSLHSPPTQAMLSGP
# Assay: Thromboxane A2 receptor antagonistic action (inhibitory action of U-46619-induced contractions of rat aortic strips)
# Type: cell-based
# Settings: isolated helical strips of rat aorta precontracted with 3×10^-8 M U-46619; read-out: IC50 (the concentrations which inhibited the contraction by 50%)
row,SMILES,IC50
1,"O=C(O)c1cc(CCNS(=O)(=O)c2ccccc2)c2cccccc1-2 [Compound 1, 3-[2-(Benzenesulfonylamino)ethyl]-azulene-1-carboxylic acid]",21000 nM
2,"Cc1ccc(S(=O)(=O)NCCCCc2cc(C(=O)O)c3ccc(C(C)C)ccc2-3)cc1 [Compound 22, 6-Isopropyl-3-[4-(4-methylbenzenesulfonylamino)butyl]-azulene-1-carboxylicacid]",20 nM
3,"CC(C)c1ccc2c(CCCCNS(=O)(=O)c3ccc(F)cc3)cc(C(=O)O)c-2cc1 [Compound 24, 6-Isopropyl-3-[4-(4-fluorobenzenesulfonylamino)butyl]-azulene-1-carboxylicacid]",11 nM
4,"CC(C)c1ccc2c(CCCCNS(=O)(=O)c3ccc(Br)cc3)cc(C(=O)O)c-2cc1 [Compound 27, 6-Isopropyl-3-[4-(4-bromobenzenesulfonylamino)butyl]-azulene-1-carboxylic acid]",5.3 nM
5,"CC(C)c1ccc2c(CCCCNS(=O)(=O)c3ccc(I)cc3)cc(C(=O)O)c-2cc1 [Compound 28, 6-Isopropyl-3-[4-(4-iodobenzenesulfonylamino)butyl]-azulene-1-carboxylic acid]",5.1 nM
6,"CC(C)c1ccc2c(CCCCNS(=O)(=O)c3ccc(C(F)(F)F)cc3)cc(C(=O)O)c-2cc1 [Compound 31, 6-Isopropyl-3-[4-(4-trifluoromethylbenzenesulfonylamino)butyl]-azulene-1-carboxylic acid]",12 nM
7,"CC(C)c1ccc2c(CCCCNS(=O)(=O)c3ccc([N+](=O)[O-])cc3)cc(C(=O)O)c-2cc1 [Compound 32, 6-Isopropyl-3-[4-(4-nitrobenzenesulfonylamino)butyl]-azulene-1-carboxylic acid]",13 nM
8,"CC(C)c1ccc2c(CCCCNC(=O)c3ccccc3)cc(C(=O)O)c-2cc1 [Compound 41, 6-Isopropyl-3-[4-(benzoylamino)butyl]-azulene-1-carboxylic acid]",4400 nM
9,"CC(C)c1ccc2c(CCCCNS(=O)(=O)c3ccc(F)cc3)cc(S(=O)(=O)O)c-2cc1 [Compound 47, 6-Isopropyl-3-[4-(P-fluorobenzenesulfonylamino)butyl]-azulene-1-sulfonic acid sodium salt]",4.4 nM
10,"CC(C)c1ccc2c(CCCCNS(=O)(=O)c3ccc(Cl)cc3)cc(S(=O)(=O)O)c-2cc1 [Compound 48, 6-Isopropyl-3-[4-(P-chlorobenzenesulfonylamino)butyl]-azulene-1-sulfonic acid sodium salt]",1.7 nM
11,"CC(C)c1ccc2c(CCCCNS(=O)(=O)c3ccc(Cl)c(Cl)c3)cc(S(=O)(=O)O)c-2cc1 [Compound 49, 6-Isopropyl-3-[4-(3,4-dichlorobenzenesulfonylamino)butyl-azulene-1-sulfonic acid sodium salt]",15 nM
12,"CC(C)c1ccc2c(C(=O)O)cc([C@H](C)CCCNS(=O)(=O)c3ccccc3)c-2cc1 [Compound 54, 6-isopropyl-3-[(1R)-methyl-4-(benzenesulfonylamino)butyl]-azulene-1-carbolxylic acid]",210 nM
13,"CC(C)c1ccc2c(C[C@H](C)CCNS(=O)(=O)c3ccccc3)cc(C(=O)O)c-2cc1 [Compound 56, 6-isopropyl-3-[(2S)-methyl-4-(benzenesulfonylamino)butyl]-azulene-1-carboxylic acid]",160 nM
14,"CC(C)c1ccc2c(C[C@@H](C)CCNS(=O)(=O)c3ccccc3)cc(C(=O)O)c-2cc1 [Compound 57, 6-isopropyl-3-[(2R)-methyl-4-(benzenesulfonylamino)butyl]-azulene-1-carboxylic acid]",36 nM
15,"CC(C)c1ccc2c(CC[C@H](C)CNS(=O)(=O)c3ccccc3)cc(C(=O)O)c-2cc1 [Compound 59, 6-isopropyl-3-[(3S)-methyl-4-(benzenesulfonylamino)butyl]-azulene-1-carboxylic acid]",16 nM
16,"CC(C)c1ccc2c(CCC[C@@H](C)NS(=O)(=O)c3ccccc3)cc(C(=O)O)c-2cc1 [Compound 63, 6-isopropyl-3-[(4R)-(benzenesulfonylamino)pentyl]-azulene-1-carboxylicacid]",420 nM
17,"CC(C)c1ccc2c(CC(C)(C)CCNS(=O)(=O)c3ccccc3)cc(C(=O)O)c-2cc1 [Compound 64, 6-isopropyl-3-[2,2-dimethyl-4-(benzenesulfonylamino)butyl]-azulene-1-carboxylic acid]",690 nM
18,"CC(C)c1ccc2c(CCC(C)(C)CNS(=O)(=O)c3ccccc3)cc(C(=O)O)c-2cc1 [Compound 65, 6-isopropyl-3-[3,3-dimethyl-4-(benzenesulfonylamino)butyl]-azulene-1-carboxylic acid]",50 nM

# Continued by falling IC50, values first:
row,IC50,SMILES
1,60000 nM,"CC(C)c1ccc2c(CCNS(=O)(=O)c3ccccc3)cc(C(=O)O)c-2cc1 [Compound 15, 6-Isopropyl-3-[2-(benzenesulfonylamino)ethyl]-azulene-1-carboxylic acid]"
2,21000 nM,"CC(C)c1cccc2c(CCNS(=O)(=O)c3ccccc3)cc(C=CC(=O)O)c-2c1 [Compound 14, 3-[7-Isopropyl-3-(2-(benzenesulfonylamino)ethyl)-azulene-1-yl]-2-propenoicacid]"
3,15000 nM,"O=C(O)c1cc(CCCCCCCCNS(=O)(=O)c2ccccc2)c2cccccc1-2 [Compound 7, 3-[8-(Benzenesulfonylamino)octyl]-azulene-1-carbaxylic acid]"
4,10000 nM,"CC(C)c1ccc2c(CCCCN(C)S(=O)(=O)c3ccccc3)cc(C(=O)O)c-2cc1 [Compound 37, 6-Isopropyl-3-[4-(N-methylbenzenesulfonylamino)butyl]-azulene-1-carboxylicacid]"
5,3100 nM,"CC(C)c1cccc2c(CCCCNS(=O)(=O)c3ccccc3)cc(C(=O)O)c-2c1 [Compound 10, 7-Isopropyl-3-[4-(benzenesulfonylamino)butyl]-azulene-1-carboxylic acid]"
6,2400 nM,"CC(C)c1ccc2c(C=CC(=O)O)cc(CCCCNS(=O)(=O)c3ccccc3)c-2cc1 [Compound 36, 3-[6-Isopropyl-3-[4-(benzenesulfonylamino)butyl]-azulene-1-yl]-2-propenoicacid]"
7,920 nM,"CC(C)c1cccc2c(CCCCCCNS(=O)(=O)c3ccccc3)cc(C(=O)O)c-2c1 [Compound 12, 7-Isopropyl-3-[6-(benzenesulfonylamino)hexyl]-azulene-1-carboxylic acid]"
8,570 nM,"O=C(O)c1cc(CCCCNS(=O)(=O)c2ccccc2)c2cccccc1-2 [Compound 3, 3-[4-(Benzenesulfonylamino)butyl]-azulene-1-carboxylic acid]"
9,300 nM,"CC(C)c1ccc2c(CCCCNS(=O)(=O)c3ccccc3)cc(CC(=O)O)c-2cc1 [Compound 33, 2-[6-Isopropyl-3-[4-(benzenesulfonylamino)butyl]-azulene-1-yl]-acetic acid]"
10,140 nM,"O=C(O)c1cc(CCCCCCNS(=O)(=O)c2ccccc2)c2cccccc1-2 [Compound 5, 3-[6-(Benzenesulfonylamino)hexyl]-azulene-1-carboxylic acid]"
11,78 nM,"CC(C)c1ccc2c(CCCCNS(=O)(=O)c3ccccc3)cc(C(=O)O)c-2cc1 [Compound 17, 6-Isopropyl-3-[4-(benzenesulfonylamino)butyl]-azulene-1-carboxylic acid]"
12,70 nM,"CC(C)c1ccc2c(CCCCCCNS(=O)(=O)c3ccccc3)cc(C(=O)O)c-2cc1 [Compound 19, 6-Isopropyl-3-[6-(benzenesulfonylamino)hexyl]-azulene-1-carboxylic acid]"
13,50 nM,"CC(C)c1ccc2c(CCC[C@H](C)NS(=O)(=O)c3ccccc3)cc(C(=O)O)c-2cc1 [Compound 62, 6-isopropyl-3-[(4S)-(benzenesulfonylamino)pentyl]-azulene-1-carboxylicacid]"
14,44 nM,"CC(C)c1ccc2c(C(=O)O)cc([C@@H](C)CCCNS(=O)(=O)c3ccccc3)c-2cc1 [Compound 55, 6-isopropyl-3-[(1S)-methyl-4-(benzenesulfonylamino)butyl]-azulene-1-carboxylic acid]"
15,43 nM,"CC(C)c1ccc2c(CCCCNS(=O)(=O)c3ccc(Cl)c(Cl)c3)cc(C(=O)O)c-2cc1 [Compound 26, 6-Isopropyl-3-[4-(3,4-dichlorobenzenesulfonylamino)butyl]-azulene-1-carboxylic acid]"
16,35 nM,"CC(C)c1ccc2c(CC[C@@H](C)CNS(=O)(=O)c3ccccc3)cc(C(=O)O)c-2cc1 [Compound 58, 6-isopropyl-3-[(3R)-methyl-4-(benzenesulfonylamino)butyl]-azulene-1-carboxylic acid]"
17,16 nM,"COc1ccc(S(=O)(=O)NCCCCc2cc(C(=O)O)c3ccc(C(C)C)ccc2-3)cc1 [Compound 23, 6-Isopropyl-3-[4-(4-methoxybenzenesulfonylamino)butyl]-azulene-1-carboxylic acid]"
18,5.3 nM,"CC(C)c1ccc2c(CCCCNS(=O)(=O)c3ccc(Cl)cc3)cc(C(=O)O)c-2cc1 [Compound 25, 6-Isopropyl-3-[4-(4-chlorobenzenesulfonylamino)butyl]-azulene-1-carboxylicacid]"
19,1.7 nM,"CC(C)c1ccc2c(CCCCNS(=O)(=O)c3ccc(Br)cc3)cc(S(=O)(=O)O)c-2cc1 [Compound 50, 6-Isopropyl-3-[4-(P-bromobenzenesulfonylamino)butyl]-azulene-1-sulfonic ac id sodium salt]"
20,1.6 nM,"CC(C)c1ccc2c(CCCCNS(=O)(=O)c3ccc(I)cc3)cc(S(=O)(=O)O)c-2cc1 [Compound 51, 6-Isopropyl-3-[4-(P-iodobenzenesulfonylamino)butyl]-azulene-1-sulfonicacid sodium salt]"
